“Also recorded” adds a separate entry of the source.
Assays:
[1] = system: MDCK monolayers; experiment: Transepithelial electrical resistance (TER) across confluent MDCK monolayers; settings: for TER of MDCK monolayers treated with synthetic cyclic peptides: 100 or 500 μg/ml, versus control cultures; for TER of epithelial (MDCK) monolayers: confluent monolayers (FIG. 1: after 30 min. of treatment); for TER after withdrawal of the protein from the culture media: monolayers washed and transferred to media without GST-VP8; for dose dependence of the effect upon TER: 0.4, 4 or 10 μg/ml
Method: MDCK cells were cultured as previously described (Gonzalez-Mariscal et al., 1990) and used for experiments between passages 70-90.
The degree of sealing of tight junctions was evaluated by measuring the transepithelial electrical resistance (TER) across the monolayer. Standard procedures were followed (Gonzalez-Mariscal et al., 1990). Briefly, monolayers grown over Millipore filters were mounted between two Lucite chambers with an exposed area of 0.23 cm2. Current was delivered via Ag—AgCl electrodes placed at 2.0 cm form the monolayer; the voltage deflection elicited was measured with a second set of electrodes placed at 1.0 mm from the membrane. The contribution if the filter and the bathing solution was subtracted, and all values reported correspond exclusively to the monolayer. Each disk was used for a single determination.
The determination of the TER across an epithelial monolayer was done as described in Example 1.

[2] = system: male Wistar rats; experiment: Induction of diabetes: blood glucose after streptozotocin; format: in vivo, rat; settings: 75 mg/kg intraperitoneal, three days after injection, versus mock injection
Method: (§1) A) Generation of Diabetic Rats. • Male Wistar rats (230-250 gr.) were maintained on PicoLab® Rodent Diet 20, sterilized by irradiation and water ad libitum, in the animal house (temperature 22 to 24° C., 50 to 55% humidity). Care and handling of the animals were in accordance to international recommended procedures. • Diabetes mellitus type I was induced with one intraperitoneal shot of streptozotocin (75 mg/Kg weight; Sigma, Cat. No. S0130), diluted in citrate buffer 0.1 M (Sigma, Cat. No. S4641) pH 4.5. Streptozotocin solution was prepared immediately before use and protected from light exposure.
(§2) B) Determination of Glucose Concentration in Blood. • Using heparinized capillary tubing (Chase Scientific Glass Inc. Cat. No. 2501) a drop of blood was taken from the eye orbital sinus of the rats. Blood glucose concentration was determined using reactive strips (One Touch, LIFESCAN, Johnson & Johnson) and a commercial glucometer (One Touch Basic Plus, LIFESCAN, Johnson & Johnson). Glucose concentration was determined in healthy animals and in those that had received the streptozotocin intraperitoneal shot at least three days before being tested.

[3] = system: ZO-1; experiment: Immunolocalization of TJ protein ZO-1 in MDCK monolayers; format: cell-based; settings: 4 μg/ml, 1 hr
Method: (§3) MDCK cells were cultured in glass coverslips. Confluent cultures were exposed to 4 μg/ml of GST-VP8 for 1 hr. The cells were then fixed for 30 min with 2% p-formaldehyde in PBS, pH 7.4, and permeabilized for 3 min with 0.2% PBS-TX. Cells were washed five times with PBS and then blocked for 30 minutes with 1% BSA Ig free (Research Organics 1331-a). The monolayers were incubated overnight at 4° C. with rabbit polyclonal antibodies against ZO-1 (Zymed 61-7300, dilution 1:100), Claudin 3 (Zymed 34-1700, dilution 3 μgr/ml) or occludin (Zymed 71-1500, dilution 1:100 in 1% Ig-free BSA). After being washed five times with PBS, the coverslips were incubated for one hour at room temperature with a secondary antibody (FITC-conjugated goat anti-rabbit, catalogue no. 65-6111, diluted 1:100, Zymed). The monolayers were washed five times in PBS before being mounted with the antifade reagent Vectashield (Vector Laboratories Inc.). The fluorescence of the monolayers was examined using a confocal microscope (MRC600, Bio-Rad) with a Krypton-argon laser.

[4] = target: T1, claudin-3 (Canis lupus familiaris, UniProt Q95KM5); experiment: Immunolocalization of TJ protein claudin-3 in MDCK monolayers; format: cell-based; settings: 4 μg/ml, 1 hr
T1 construct: endogenous in cells; host or cells: MDCK
T1 sequence (Q95KM5 1-218): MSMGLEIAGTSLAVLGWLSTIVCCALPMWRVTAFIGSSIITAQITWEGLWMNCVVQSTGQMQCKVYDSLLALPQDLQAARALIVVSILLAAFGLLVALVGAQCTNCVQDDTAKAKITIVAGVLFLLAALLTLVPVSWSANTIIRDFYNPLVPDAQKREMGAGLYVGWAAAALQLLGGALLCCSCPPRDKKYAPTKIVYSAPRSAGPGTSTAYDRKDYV
Method: as §3

[5] = target: T2, occludin (Canis lupus familiaris, UniProt Q28269); experiment: Immunolocalization of TJ protein occludin in MDCK monolayers; format: cell-based; settings: 4 μg/ml, 1 hr
T2 construct: endogenous in cells; host or cells: MDCK
T2 sequence (Q28269 1-521): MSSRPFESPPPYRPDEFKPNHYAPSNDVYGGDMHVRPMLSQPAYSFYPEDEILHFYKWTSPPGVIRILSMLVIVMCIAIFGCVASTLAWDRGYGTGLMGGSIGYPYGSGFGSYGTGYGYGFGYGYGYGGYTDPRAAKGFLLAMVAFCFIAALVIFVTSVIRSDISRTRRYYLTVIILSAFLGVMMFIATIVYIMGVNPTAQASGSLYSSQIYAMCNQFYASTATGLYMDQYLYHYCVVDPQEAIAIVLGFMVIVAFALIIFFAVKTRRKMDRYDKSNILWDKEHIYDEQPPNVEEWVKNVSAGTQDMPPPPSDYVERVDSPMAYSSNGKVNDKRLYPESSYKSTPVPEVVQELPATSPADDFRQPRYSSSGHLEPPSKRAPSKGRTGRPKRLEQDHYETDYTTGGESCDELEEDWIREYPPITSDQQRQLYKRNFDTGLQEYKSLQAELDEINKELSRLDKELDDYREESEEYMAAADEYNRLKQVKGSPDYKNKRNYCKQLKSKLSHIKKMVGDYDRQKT
Method: as §3

[6] = system: MDCK monolayers; experiment: Calcium-switch assay for TJ assembly (development of TER); format: cell-based; settings: 4 μg/ml
Method: The ability of VP8 to inhibit the development of TJ was assessed utilizing the Ca^2+ switch assay (Gonzalez-Mariscal et al., 1990). Cells were plated at confluency on Millipore filters and incubated for 1 hour in DMEM (normal calcium media, NC; 1.8 mM Ca^2+). Then, the resulting monolayers were washed three times with PBS without Ca^2+ and transferred to minimal essential medium without Ca^2+ (low calcium media, LC; 1-5 μM Ca^2+). Twenty hours later experimental monolayers were transferred to LC media containing 4 μg/ml of GST-VP8 or of GST-VP5 dissolved in LC media, while control monolayers were again incubated in LC media. After 30 minutes, the experimental monolayers were transferred to NC media containing 4 μg/ml of GST-VP8 or of GST-VP5. Control monolayers received instead NC media. The TER was measured at different time points after the monolayers were transferred to NC media.

[7] = system: pancreatic cancer and gastrointestinal tumors; settings: cited from earlier work
[8] = system: TJ of MDCK monolayers; experiment: Freeze-fracture analysis of TJ strands in MDCK monolayers; format: cell-based; settings: 4 μg/ml, 1 hour
Method: Confluent monolayers of MDCK cells were incubated for 1 hour with 4 μg/ml of GST-VP8 dissolved in DMEM, while control monolayers remained in DMEM. Freeze-fracture replicas were obtained from monolayers fixed with 2.5% glutaraldehyde for 30 minutes, and gradually infiltrated with glycerol up to a 20% concentration, in which they were left for 1 hour. The monolayers were then detached from the substrate and frozen in liquid nitrogen. Freeze fracture was carried out at −120° C., and 2×10^−6 mm Hg using a Balzers apparatus (BAF400T). After evaporation of platinum and carbon, the organic material was digested for 1 hour in chromic mixture. Replicas were extensively washed in distilled water and mounted in Formvar coated grids. The observations were done in an electron microscope JEOL 200EX.
To assess modifications in the pattern of TJ strands, we counted the number of strands intercepting lines drawn perpendicular to the main axis of the junction, every 48 nm, as well as the distance between the upper and lowermost strand. 59 and 54 μm of TJ networks were analysed respectively for control and VP8 treated monolayers.
As has been previously reported (Gonzalez-Mariscal et al., 1985) the amount of junction is defined by the following function:
Where ni is the number of strands in a segment of TJ, and % is the percentage in which that number of strands is present in the sample.
Total junctional width is defined as: […]
Where ni is the distance between the upper and lowermost filament in TJ segment, and %i is the percentage in which that width is present in the sample.

[9] = system: rats with streptozotocin induced diabetes; experiment: Blood glucose after insulin administration to diabetic rats; format: in vivo, rat
Method: as §1, §2
C) Administration of Insulin to Diabetic Rats. • In order to study the changes in glucose concentration generated by the administration of insulin, the first blood sample was taken from diabetic animals that had fasted overnight. Immediately after, the animals received their food (Lab Diet 5053), and 30 minutes later they were treated according to the following protocols: 1) Human insulin of intermediate action (3-6 IU/rat; Humulin® N, HI-310, Lilly) was parenterally administered. 2) Human insulin of intermediate action (15-30 IU/rat; Humulin® N, HI-310, Lilly) was given orally through an esophagic rat cannula (Fine Science Tools; Cat. No. 18061-75), in a solution of 400 μl of NaHCO3 (1.5 g/100 ml, pH 8.3-8.4), to neutralize gastric acidity. 3) Employing an esophagic rat cannula, 100 μg of GST-VP8 and human insulin of intermediate action (15-30 IU/rat; Humulin® N, HI-310, Lilly) were administered orally in a solution of 400 μl NaHCO3 (1.5 g/100 ml, pH 8.3-8.4). 4) 100 μg of GST-VP8 were administered orally through an esophagic rat cannula. The level of blood glucose was determined at different times after the start of each of the above described procedures.

Compound: 144VVKT147 (Rhesus Monkey Rotavirus) [SEQ. ID. No. 4]
- TER of MDCK monolayers treated with synthetic cyclic peptides [1]: no effect; also recorded: TER similar to that of control cultures

Compound: 174IYTY177 (Rhesus Monkey Rotavirus) [SEQ. ID. No. 6]
- TER of MDCK monolayers treated with synthetic cyclic peptides [1]: no effect; also recorded: TER similar to that of control cultures

Compound: 183NVTT186 (Rhesus Monkey Rotavirus) [SEQ. ID. No. 7]
- TER of MDCK monolayers treated with synthetic cyclic peptides [1]: significantly reduces the TER; also recorded: significantly lower TER

Compound: CN(N=O)C(=O)N[C@H]1C(O)O[C@H](CO)[C@@H](O)[C@@H]1O (mixture of isomers) [streptozotocin]
- concentration of blood glucose [2]: significantly increased the level of glucose in the blood
- concentration of blood glucose ([2]; listed as Streptozotocin): significantly increases the concentration of blood glucose

Compound: GST-VP8: RRV VP8 fragment (VP4 gene nucleotides 1 to 750) cloned in pGEX-4T-1, fusion protein
- distribution of ZO-1 (immunofluorescence) [3]: strong immuno reactivity in the cytoplasm; also recorded: strong immunoreactivity in the cytoplasm
- distribution of claudin-3 (immunofluorescence) [4]: large areas almost devoid of lateral staining; also recorded: cell border staining becomes barely detectable in large areas of the monolayer
- distribution of occludin (immunofluorescence) [5]: broad and diffuse stain at the cell periphery; also recorded: diffuse and wide label at the cellular boundaries
- development of TER / epithelial paracellular barrier after transfer from low to normal calcium media [6]: delays the development of the epithelial paracellular barrier
- TER of epithelial (MDCK) monolayers ([1]; 4 μg/ml): significant decrease in TER
- TER of epithelial (MDCK) monolayers ([1]; 4 μg/ml, listed as VP8-GST): significantly reduces the TER
- TER after withdrawal of the protein from the culture media ([1]; 4 μg/ml): recover their TER
- TER after withdrawal of the protein from the culture media ([1]; 4 μg/ml, listed as GST-VPB): the TER of the monolayers is restored
- dose dependence of the effect upon TER [1]: dose-dependent decrease in TER

Compound: TGFβ
- tumor growth [7]: significant reduction of tumor growth

Compound: VP8: polypeptide derived from rotavirus protein VP4; used in the experiments as GST or His fusion protein
- TJ freeze fracture pattern [8]: induces the appearance of loose ends oriented perpendicular to the network of TJ fibrils
- distribution of the number of TJ strands ([8]; versus control monolayers): no change
- total amount of junction ([8]; versus control monolayers): no change
- Number of loose ends/linear amount of junction in μm ([8]; control monolayers 0.17): 0.32
- development of TER / epithelial paracellular barrier after transfer from low to normal calcium media [6]: a clear inhibition in the development of TER
- blood glucose concentration, insulin administered orally together with VP8 ([9]; VP8 100 μg and insulin 30 IU, oral): the blood glucose concentration diminishes; also recorded: diminishes significantly
- blood glucose concentration, VP8 administered orally alone ([9]; VP8 100 μg, oral, no insulin): Only with the latter treatment the blood glucose concentration diminished
- TER of epithelial (MDCK) monolayers ([1]; 4 μg/ml): diminishes the TER
- reversibility with time of the effect upon TER ([1]; 4 μg/ml, protein kept in media): reversible with time; also recorded: in a reversible manner
- dose dependence of the effect upon TER [1]: dose dependent

Compound: insulin: Human insulin of intermediate action (Humulin® N, HI-310, Lilly) [reference compound]
- blood glucose concentration, insulin administered orally alone ([9]; 30 IU, oral): the concentration of glucose remains high; also recorded: does not diminish the blood glucose concentration
- blood glucose concentration, insulin administered parenterally ([9]; Humulin, intermediate action, 6 IU, parenteral): decreases the blood glucose concentration
